Conditions: tetrofosmin kit with ascorbic acid radioprotectant, without air addition step; post preparation
From the text: The tetrofosmin kit may optionally comprise a radioprotectant, as defined above. […] Med. Comm., 21, 845-849 (2000)] and the Myoview™ Package Instructions.

CCOCC[PH+](CCOCC)CC[PH+](CCOCC)CCOCC.CCOCC[PH+](CCOCC)CC[PH+](CCOCC)CCOCC.[O]=[99Tc]=[O] [^99mTc-tetrofosmin, ^99mTc(O)2(tetrofosmin)2^+]
post-reconstitution stability: up to 12 hours
